For orientation: IC50 means the concentration needed to halve the response being measured.

IC50 data for 32 compounds are collected here from patent US9056874B2, “Complement pathway modulators and uses thereof” (NOVARTIS AG, priority 2012, dated 2015).

The target of this assay is factor B (Homo sapiens, UniProt P00751). As to the kind of experiment: factor B inhibition assay of Biological Example 1. Type of assay: biochemical. The following applies: IC50 (nM), assay of Biological Example 1 (Table 1). The arrangement: CVF-Bb complex prepared from purified cobra venom factor (1 μM), recombinant human complement factor B; made in house; host or cells: drosophila cells (factor B); E. coli (factor D used to form the complex).
Chain of factor B (P00751 260-764 limits assumed): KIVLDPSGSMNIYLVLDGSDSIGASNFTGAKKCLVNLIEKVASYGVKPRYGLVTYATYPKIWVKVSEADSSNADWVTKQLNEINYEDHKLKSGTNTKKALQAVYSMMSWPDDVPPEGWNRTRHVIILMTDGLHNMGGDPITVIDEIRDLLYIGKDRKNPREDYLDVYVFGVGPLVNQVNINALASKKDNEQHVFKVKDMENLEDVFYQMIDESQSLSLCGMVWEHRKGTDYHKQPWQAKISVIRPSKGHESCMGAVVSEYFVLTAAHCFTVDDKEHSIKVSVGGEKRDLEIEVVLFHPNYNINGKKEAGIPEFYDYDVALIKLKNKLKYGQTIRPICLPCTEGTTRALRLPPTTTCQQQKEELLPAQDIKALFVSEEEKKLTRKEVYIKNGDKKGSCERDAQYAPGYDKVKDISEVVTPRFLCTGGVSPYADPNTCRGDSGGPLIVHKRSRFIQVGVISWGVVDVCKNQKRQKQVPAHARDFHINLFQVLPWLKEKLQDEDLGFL
Chain of factor B (Q91132 23-649 partner limits assumed): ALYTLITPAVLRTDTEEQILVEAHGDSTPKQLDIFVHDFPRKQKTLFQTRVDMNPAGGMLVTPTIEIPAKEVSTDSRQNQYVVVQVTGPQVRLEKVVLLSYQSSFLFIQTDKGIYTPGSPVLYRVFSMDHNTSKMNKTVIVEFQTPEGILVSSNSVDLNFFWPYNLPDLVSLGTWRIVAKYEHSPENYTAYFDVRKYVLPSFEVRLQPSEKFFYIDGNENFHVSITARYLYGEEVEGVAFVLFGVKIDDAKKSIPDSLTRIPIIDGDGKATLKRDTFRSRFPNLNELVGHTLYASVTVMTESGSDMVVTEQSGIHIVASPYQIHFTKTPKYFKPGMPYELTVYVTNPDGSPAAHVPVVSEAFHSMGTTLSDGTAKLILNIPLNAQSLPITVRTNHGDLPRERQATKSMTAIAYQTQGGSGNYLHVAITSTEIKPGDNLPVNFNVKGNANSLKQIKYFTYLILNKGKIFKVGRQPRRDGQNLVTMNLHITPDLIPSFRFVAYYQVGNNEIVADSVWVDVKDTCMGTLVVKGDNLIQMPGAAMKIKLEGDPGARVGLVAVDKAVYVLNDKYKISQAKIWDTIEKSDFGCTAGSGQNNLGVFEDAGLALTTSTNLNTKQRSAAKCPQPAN
Chain of factor B (Q91132 733-984 partner limits assumed): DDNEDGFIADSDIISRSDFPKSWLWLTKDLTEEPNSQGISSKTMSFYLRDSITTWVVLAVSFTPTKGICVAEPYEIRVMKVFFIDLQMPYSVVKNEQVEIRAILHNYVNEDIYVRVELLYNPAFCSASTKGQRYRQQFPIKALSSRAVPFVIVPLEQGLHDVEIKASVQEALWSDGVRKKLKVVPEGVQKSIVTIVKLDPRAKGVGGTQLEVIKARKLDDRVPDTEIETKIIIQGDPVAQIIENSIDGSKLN
Chain of factor B (Q91132 1264-1642 partner limits assumed): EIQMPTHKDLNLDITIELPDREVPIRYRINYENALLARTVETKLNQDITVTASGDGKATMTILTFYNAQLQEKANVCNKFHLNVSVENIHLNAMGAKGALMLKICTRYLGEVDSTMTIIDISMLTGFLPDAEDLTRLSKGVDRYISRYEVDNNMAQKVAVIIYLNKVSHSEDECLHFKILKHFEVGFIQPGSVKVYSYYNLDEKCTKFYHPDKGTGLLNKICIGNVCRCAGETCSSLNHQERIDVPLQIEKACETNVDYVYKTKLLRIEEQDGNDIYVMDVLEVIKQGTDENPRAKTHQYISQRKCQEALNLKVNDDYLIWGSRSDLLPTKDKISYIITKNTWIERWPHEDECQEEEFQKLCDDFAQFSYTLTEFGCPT
Regarding `Cc1cc(OC(F)F)c(C(NCCN)c2nc3cc(C#N)ccc3[nH]2)c2cc[nH]c12` (racemic) [3-B a) 2nd compound, (±)-2-(((2-aminoethyl)amino)(5-(difluoromethoxy)-7-methyl-1H-indol-4-yl)methyl)-1H-benzo[d]imidazole-5-carbonitrile], the IC50 came to 2700 nM. The result for `Cc1cc(OC(F)F)c(C(C)(O)c2nc3cc(C#N)ccc3[nH]2)c2cc[nH]c12` (racemic) [6-B b) (+), (+)-2-(1-(5-(difluoromethoxy)-7-methyl-1H-indol-4-yl)-1-hydroxyethyl)-1H-benzo[d]imidazole-5-carbonitrile] reads 140 nM; that for `Cc1cc(OC(F)F)c(C(C)(O)c2nc3cc(C#N)ccc3[nH]2)c2cc[nH]c12` (racemic) [6-B b) (−), (−)-2-(1-(5-(difluoromethoxy)-7-methyl-1H-indol-4-yl)-1-hydroxyethyl)-1H-benzo[d]imidazole-5-carbonitrile], 110 nM; that for `COc1cc(C)c2[nH]ccc2c1C(C)(O)c1nc2cc(C#N)ccc2[nH]1` (racemic) [26-C b) (+), (+)-2-(1-hydroxy-1-(5-methoxy-7-methyl-1H-indol-4-yl)ethyl)-1H-benzo[d]imidazole-5-carbonitrile], 50 nM. Turning to `COc1cc(C)c2[nH]ccc2c1C(C)(O)c1nc2cc(C#N)ccc2[nH]1` (racemic) [26-C b) (−), (−)-2-(1-hydroxy-1-(5-methoxy-7-methyl-1H-indol-4-yl)ethyl)-1H-benzo[d]imidazole-5-carbonitrile], the 50% inhibitory concentration (IC50) is 80 nM. `COc1cc(C)c2[nH]ccc2c1C(OC)c1nc2cc(C#N)ccc2[nH]1` (racemic) [30-B b) (+), (+)-2-(methoxy(5-methoxy-7-methyl-1H-indol-4-yl)methyl)-1H-benzo[d]imidazole-5-carbonitrile]: the IC50 turned out to be 220 nM.

`COc1cc(C)c2[nH]ccc2c1C(OC)c1nc2cc(C#N)ccc2[nH]1` (racemic) [30-B b) (−), (−)-2-(methoxy(5-methoxy-7-methyl-1H-indol-4-yl)methyl)-1H-benzo[d]imidazole-5-carbonitrile]: the 50% inhibitory concentration (IC50) came to 160 nM. The result for `COC(=O)COC(c1nc2cc(C#N)ccc2[nH]1)(c1c(OC)cc(C)c2[nH]ccc12)C(F)(F)F` (racemic) [35-B a), (±)-Methyl 2-(1-(5-cyano-1H-benzo[d]imidazol-2-yl)-2,2,2-trifluoro-1-(5-methoxy-7-methyl-1H-indol-4-yl)ethoxy)acetate] reads 70 nM; that for `COc1cc(C)c2[nH]ccc2c1C(N)(c1nc2cc(C#N)ccc2[nH]1)C(F)(F)F` (racemic) [36-E b) (+), (+)-2-(1-amino-2,2,2-trifluoro-1-(5-methoxy-7-methyl-1H-indol-4-yl)ethyl)-1H-benzo[d]imidazole-5-carbonitrile], 50 nM.

`CCCc1cc(C)c2[nH]ccc2c1C(C)(O)c1nc2cc(C#N)ccc2[nH]1` (racemic) [79-B a) 2nd compound, (±)-2-(1-hydroxy-1-(7-methyl-5-propyl-1H-indol-4-yl)ethyl)-1H-benzo[d]imidazole-5-carbonitrile]: the half-inhibitory concentration (IC50) was 150 nM. Consider `Cc1cc(C)c2[nH]ccc2c1C(C)(N)c1nc2cc(C#N)ccc2[nH]1` (racemic) [101-E b) (+), (+)-2-(1-amino-1-(5,7-dimethyl-1H-indol-4-yl)ethyl)benzo[d]imidazole-5-carbonitrile], for which the IC50 was found to be 80 nM. The same measure for `Cc1cc(C)c2[nH]ccc2c1C(C)(N)c1nc2cc(C#N)ccc2[nH]1` (racemic) [101-E b) (−), (−)-2-(1-amino-1-(5,7-dimethyl-1H-indol-4-yl)ethyl)benzo[d]imidazole-5-carbonitrile]: 50 nM; for `COc1cc(C)c2[nH]ccc2c1C(C)(O)c1nc2cc(C#N)ccc2o1` (racemic) [126-C a), (±)-2-(1-hydroxy-1-(5-methoxy-7-methyl-1H-indol-4-yl)ethyl)benzo[d]oxazole-5-carbonitrile]: 8 nM; for `COc1cc(C)c2[nH]ccc2c1C(C)(OC)c1nc2cc(C#N)ccc2o1` (racemic) [127-B a), (±)-2-(1-methoxy-1-(5-methoxy-7-methyl-1H-indol-4-yl)ethyl)benzo[d]oxazole-5-carbonitrile]: 330 nM.

Turning to `CNC(c1nc2cc(C#N)ccc2[nH]1)c1c(OC(F)F)cc(C)c2[nH]ccc12` (racemic) [Example 4, (±)-2-((5-(Difluoromethoxy)-7-methyl-1H-indol-4-yl)(methylamino)methyl)-1H-benzo[d]imidazole-5-carbonitrile], the concentration for half-maximal inhibition (IC50) was 570 nM. The result for `Cc1cc(S(C)(=O)=O)c(C(O)c2nc3cc(C#N)ccc3[nH]2)c2cc[nH]c12` (racemic) [Example 10-C, (±)-2-(Hydroxy(7-methyl-5-(methylsulfonyl)-1H-indol-4-yl)methyl)-1H-benzo[d]imidazole-5-carbonitrile] reads 1360 nM; that for `COCC(C)Oc1cc(C)c2[nH]ccc2c1Cc1nc2cc(C#N)ccc2[nH]1` (racemic) [Example 23, (±)-2-((5-((1-Methoxypropan-2-yl)oxy)-7-methyl-1H-indol-4-yl)methyl)-1H-benzo[d]imidazole-5-carbonitrile], 2650 nM. For the compound `Cc1cc(OCC(N)=O)c(C(C)(O)c2nc3cc(C#N)ccc3[nH]2)c2cc[nH]c12` (racemic) [Example 31-C, (±)-2-((4-(1-(5-Cyano-1H-benzo[d]imidazol-2-yl)-1-hydroxyethyl)-7-methyl-1H-indol-5-yl)oxy)acetamide], the IC50 amounted to 430 nM.

On to `Cc1cc(OCC(=O)O)c(C(C)(O)c2nc3cc(C#N)ccc3[nH]2)c2cc[nH]c12` (racemic) [Example 32-B, (±)-2-((4-(1-(5-Cyano-1H-benzo[d]imidazol-2-yl)-1-hydroxyethyl)-7-methyl-1H-indol-5-yl)oxy)acetic acid], for which the concentration for half-maximal inhibition (IC50) is 1410 nM.

Regarding `Cc1cc(OC(C)C)c(C(N)(c2nc3cc(C#N)ccc3[nH]2)C(F)(F)F)c2cc[nH]c12` (racemic) [Example 37, (±)-2-(1-Amino-2,2,2-trifluoro-1-(5-isopropoxy-7-methyl-1H-indol-4-yl)ethyl)-1H-benzo[d]imidazole-5-carbonitrile], the IC50 stood at 30 nM. Regarding `COc1cc(C)c2[nH]ccc2c1C(c1nc2cc(C#N)ccc2[nH]1)(N(C)C)C(F)(F)F` (racemic) [Example 38-C, (±)-2-(1-(Dimethylamino)-2,2,2-trifluoro-1-(5-methoxy-7-methyl-1H-indol-4-yl)ethyl)-1H-benzo[d]imidazole-5-carbonitrile], the concentration for half-maximal inhibition (IC50) is 490 nM. For the compound `Cc1cc(OC(C)C)c(C(N)c2nc3cc(C#N)ccc3[nH]2)c2cc[nH]c12` (racemic) [Example 40, (±)-2-(Amino(5-isopropoxy-7-methyl-1H-indol-4-yl)methyl)-1H-benzo[d]imidazole-5-carbonitrile], the IC50 is 50 nM. For the compound `COc1cc(C)c2[nH]ccc2c1C(c1nc2cc(C#N)ccc2[nH]1)N(C)C` (racemic) [Example 43-C, (±)-2-((Dimethylamino)(5-methoxy-7-methyl-1H-indol-4-yl)methyl)-1H-benzo[d]imidazole-5-carbonitrile], the half-maximal inhibitory concentration (IC50) came out at 1180 nM. Take `CCOc1cc(C)c2[nH]ccc2c1C(CN)c1nc2cc(C#N)ccc2[nH]1` (racemic) [Example 44-C, (±)-2-(2-amino-1-(5-ethoxy-7-methyl-1H-indol-4-yl)ethyl)-1H-benzo[d]imidazole-5-carbonitrile]: the IC50 was 870 nM.

In the case of `CCOc1cc(C)c2[nH]ccc2c1C(CNC)c1nc2cc(C#N)ccc2[nH]1` (racemic) [Example 45, (±)-2-(1-(5-ethoxy-7-methyl-1H-indol-4-yl)-2-(methylamino)ethyl)-1H-benzo[d]imidazole-5-carbonitrile], the 50% inhibitory concentration (IC50) was found to be 1040 nM. The result for `COC(c1nc2cc(C#N)ccc2[nH]1)c1c(C)cc(C)c2[nH]ccc12` (racemic) [Example 68-B, (±)-2-((5,7-Dimethyl-1H-indol-4-yl)(methoxy)methyl)-1H-benzo[d]imidazole-5-carbonitrile] reads 200 nM.

Turning to `Cc1cc(C)c2[nH]ccc2c1C(OCC(=O)O)c1nc2cc(C#N)ccc2[nH]1` (racemic) [Example 69, (±)-2-((5-cyano-1H-benzo[d]imidazol-2-yl)(5,7-dimethyl-1H-indol-4-yl)methoxy)acetic acid], the half-inhibitory concentration (IC50) is 3630 nM.

For `CCOC(c1nc2cc(C#N)ccc2[nH]1)c1c(C)cc(C)c2[nH]ccc12` (racemic) [Example 73, (±)-2-((5,7-Dimethyl-1H-indol-4-yl)(ethoxy)methyl)-1H-benzo[d]imidazole-5-carbonitrile], the IC50 is 1270 nM. For `COCCOC(c1nc2cc(C#N)ccc2[nH]1)c1c(C)cc(C)c2[nH]ccc12` (racemic) [Example 74, (±)-2-((5,7-Dimethyl-1H-indol-4-yl)(2-methoxyethoxy)methyl)benzo[d]imidazole-5-carbonitrile], the IC50 came to 1870 nM. Regarding `Cc1cc(C)c2[nH]ccc2c1C(C)c1nc2cc(C#N)ccc2[nH]1` (racemic) [Example 75-D, (±)-2-(1-(5,7-Dimethyl-1H-indol-4-yl)ethyl)-1H-benzo[d]imidazole-5-carbonitrile], the IC50 was determined as 470 nM. `Cc1cc2c(c3cc[nH]c13)C(c1nc3cc(C#N)ccc3[nH]1)(C(F)(F)F)OC2=O` (racemic) [Example 81-D, (±)-2-(5-Methyl-3-oxo-1-(trifluoromethyl)-3,6-dihydro-1H-furo[3,4-e]indol-1-yl)-1H-benzo[d]imidazole-5-carbonitrile]: the IC50 was determined as 2930 nM. As for `Cc1cc(CO)c(C(O)(c2nc3cc(C#N)ccc3[nH]2)C(F)(F)F)c2cc[nH]c12` (racemic) [Example 81-E, (±)-2-(2,2,2-Trifluoro-1-hydroxy-1-(5-(hydroxymethyl)-7-methyl-1H-indol-4-yl)ethyl)-1H-benzo[d]imidazole-5-carbonitrile], the half-inhibitory concentration (IC50) came to 1640 nM.
